Experimental data published in the supplement of paper PMC10307832.

Assays:
Test in all cases: relative viability (nuclei count vs DMSO), 5 days (fraction); higher = more cells survive
NCI-H1666 = tested on: NCI-H1666
In short: (§1)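 The day after seeding in 1536-well plates, lung cancer cell lines were treated by pin tool with a single drug, or with a fixed anchor-drug dose together with five library-drug doses (not always all listed) in √10 steps. After 5 days, a combined fix-and-stain solution (final 0.05% Triton X-100, 1% formaldehyde, 1 ug/ml Hoechst) was added. Nuclei counted on 4× images gave relative viability as treated counts over vehicle counts, reported as the median of duplicate plates.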

HCC-827 = tested on: HCC-827
In short: as §1

EPLC-272H = tested on: EPLC-272H
In short: as §1

LU99A = tested on: LU99A
In short: as §1

HOP-62 = tested on: HOP-62
In short: as §1

201T = tested on: 201T
In short: as §1

LCLC-97TM1 = tested on: LCLC-97TM1
In short: as §1

H3255 = tested on: H3255
In short: as §1

NCI-H2085 = tested on: NCI-H2085
In short: as §1

EKVX = tested on: EKVX
In short: as §1

PC-3 [JPC-3] = tested on: PC-3 [JPC-3]
In short: as §1

NCI-H647 = tested on: NCI-H647
In short: as §1

NCI-H358 = tested on: NCI-H358
In short: as §1

NCI-H1975 = tested on: NCI-H1975
In short: as §1

SW 1573 = tested on: SW 1573
In short: as §1

NCI-H2087 = tested on: NCI-H2087
In short: as §1

HCC-44 = tested on: HCC-44
In short: as §1

BEN = tested on: BEN
In short: as §1

COR-L 105 = tested on: COR-L 105
In short: as §1

NCI-H1437 = tested on: NCI-H1437
In short: as §1

LOU-NH91 = tested on: LOU-NH91
In short: as §1

With `C=C1C(=O)O[C@@H](CCCCCCCC)[C@@H]1C(=O)O` [C-75] + C[C@@H](Oc1cc(-c2cnn(C3CCNCC3)c2)cnc1N)c1c(Cl)ccc(F)c1Cl [Crizotinib] (partner 1 µM) as the compound, how does the relative viability (NCI-H1666; first compound 0.08 µM) read?
The relative viability was 1.19.

What about the relative viability (NCI-H1666; first compound 0.253 µM) of the same compound?
The relative viability was 1.21.

And the relative viability (NCI-H1666; first compound 0.8 µM)?
The relative viability was 0.928.

And the relative viability (NCI-H1666; first compound 2.53 µM)?
The relative viability was 0.847.

What about the relative viability (NCI-H1666; first compound 8 µM) of the same compound?
Its relative viability is 0.614.

And the relative viability (HCC-827; first compound 0.08 µM)?
Its relative viability is 0.917.

What about the relative viability (HCC-827; first compound 0.253 µM) of the same compound?
Its relative viability is 0.88.

And the relative viability (HCC-827; first compound 0.8 µM)?
The relative viability was 0.872.

What about the relative viability (HCC-827; first compound 2.53 µM) of the same compound?
Its relative viability is 0.973.

What about the relative viability (HCC-827; first compound 8 µM) of the same compound?
The relative viability was 0.946.

What about the relative viability (EPLC-272H; first compound 0.08 µM) of the same compound?
The relative viability was 0.86.

What about the relative viability (EPLC-272H; first compound 0.253 µM) of the same compound?
Its relative viability is 0.994.

What about the relative viability (EPLC-272H; first compound 0.8 µM) of the same compound?
Its relative viability is 0.824.

And the relative viability (EPLC-272H; first compound 2.53 µM)?
The relative viability was 0.672.

And the relative viability (EPLC-272H; first compound 8 µM)?
The relative viability was 0.658.

And the relative viability (LU99A; first compound 0.08 µM)?
The relative viability was 0.538.

What about the relative viability (LU99A; first compound 0.253 µM) of the same compound?
The relative viability was 0.616.

And the relative viability (LU99A; first compound 0.8 µM)?
The relative viability was 0.49.

And the relative viability (LU99A; first compound 2.53 µM)?
The relative viability was 0.395.

What about the relative viability (LU99A; first compound 8 µM) of the same compound?
Its relative viability is 0.398.

And the relative viability (HOP-62; first compound 0.08 µM)?
Its relative viability is 0.99.

And the relative viability (HOP-62; first compound 0.253 µM)?
The relative viability was 0.849.

And the relative viability (HOP-62; first compound 0.8 µM)?
The relative viability was 0.81.

And the relative viability (HOP-62; first compound 2.53 µM)?
Its relative viability is 0.824.

And the relative viability (HOP-62; first compound 8 µM)?
The relative viability was 1.

What about the relative viability (201T; first compound 0.08 µM) of the same compound?
The relative viability was 1.05.

And the relative viability (201T; first compound 0.253 µM)?
Its relative viability is 1.05.

What about the relative viability (201T; first compound 0.8 µM) of the same compound?
Its relative viability is 1.01.

What about the relative viability (201T; first compound 2.53 µM) of the same compound?
The relative viability was 0.966.

What about the relative viability (201T; first compound 8 µM) of the same compound?
Its relative viability is 1.05.

What about the relative viability (LCLC-97TM1; first compound 0.08 µM) of the same compound?
Its relative viability is 0.274.

What about the relative viability (LCLC-97TM1; first compound 0.253 µM) of the same compound?
The relative viability was 0.461.

And the relative viability (LCLC-97TM1; first compound 0.8 µM)?
Its relative viability is 0.328.

What about the relative viability (LCLC-97TM1; first compound 2.53 µM) of the same compound?
Its relative viability is 0.253.

What about the relative viability (LCLC-97TM1; first compound 8 µM) of the same compound?
Its relative viability is 0.29.

What about the relative viability (H3255; first compound 0.08 µM) of the same compound?
Its relative viability is 0.909.

And the relative viability (H3255; first compound 0.253 µM)?
Its relative viability is 0.932.

What about the relative viability (H3255; first compound 0.8 µM) of the same compound?
Its relative viability is 0.875.

What about the relative viability (H3255; first compound 2.53 µM) of the same compound?
Its relative viability is 0.841.

What about the relative viability (H3255; first compound 8 µM) of the same compound?
The relative viability was 0.843.

And the relative viability (NCI-H2085; first compound 0.08 µM)?
The relative viability was 0.739.

And the relative viability (NCI-H2085; first compound 0.253 µM)?
The relative viability was 0.803.

What about the relative viability (NCI-H2085; first compound 0.8 µM) of the same compound?
The relative viability was 0.878.

What about the relative viability (NCI-H2085; first compound 2.53 µM) of the same compound?
Its relative viability is 0.656.

What about the relative viability (NCI-H2085; first compound 8 µM) of the same compound?
The relative viability was 0.878.

And the relative viability (EKVX; first compound 0.08 µM)?
Its relative viability is 1.01.

And the relative viability (EKVX; first compound 0.253 µM)?
The relative viability was 0.983.

What about the relative viability (EKVX; first compound 0.8 µM) of the same compound?
The relative viability was 0.897.

And the relative viability (EKVX; first compound 2.53 µM)?
Its relative viability is 0.85.

And the relative viability (EKVX; first compound 8 µM)?
The relative viability was 0.893.

And the relative viability (PC-3 [JPC-3]; first compound 0.08 µM)?
The relative viability was 1.01.

What about the relative viability (PC-3 [JPC-3]; first compound 0.253 µM) of the same compound?
The relative viability was 0.99.

What about the relative viability (PC-3 [JPC-3]; first compound 0.8 µM) of the same compound?
Its relative viability is 0.98.

What about the relative viability (PC-3 [JPC-3]; first compound 2.53 µM) of the same compound?
Its relative viability is 1.05.

And the relative viability (PC-3 [JPC-3]; first compound 8 µM)?
Its relative viability is 1.14.

What about the relative viability (NCI-H647; first compound 0.08 µM) of the same compound?
The relative viability was 1.06.

What about the relative viability (NCI-H647; first compound 0.253 µM) of the same compound?
Its relative viability is 1.05.

What about the relative viability (NCI-H647; first compound 2.53 µM) of the same compound?
Its relative viability is 0.842.

What about the relative viability (NCI-H647; first compound 8 µM) of the same compound?
The relative viability was 0.603.

What about the relative viability (NCI-H358; first compound 0.08 µM) of the same compound?
Its relative viability is 0.63.

And the relative viability (NCI-H358; first compound 0.253 µM)?
The relative viability was 0.696.

What about the relative viability (NCI-H358; first compound 0.8 µM) of the same compound?
The relative viability was 0.59.

And the relative viability (NCI-H358; first compound 2.53 µM)?
The relative viability was 0.565.

And the relative viability (NCI-H358; first compound 8 µM)?
The relative viability was 0.618.

And the relative viability (NCI-H1975; first compound 0.08 µM)?
The relative viability was 0.987.

What about the relative viability (NCI-H1975; first compound 0.253 µM) of the same compound?
Its relative viability is 0.929.

What about the relative viability (NCI-H1975; first compound 0.8 µM) of the same compound?
The relative viability was 0.908.

What about the relative viability (NCI-H1975; first compound 2.53 µM) of the same compound?
The relative viability was 0.773.

What about the relative viability (NCI-H1975; first compound 8 µM) of the same compound?
The relative viability was 0.935.

And the relative viability (SW 1573; first compound 0.08 µM)?
The relative viability was 0.812.

And the relative viability (SW 1573; first compound 0.253 µM)?
The relative viability was 0.842.

What about the relative viability (SW 1573; first compound 0.8 µM) of the same compound?
The relative viability was 0.768.

What about the relative viability (SW 1573; first compound 2.53 µM) of the same compound?
Its relative viability is 0.809.

What about the relative viability (SW 1573; first compound 8 µM) of the same compound?
Its relative viability is 0.754.

And the relative viability (NCI-H2087; first compound 0.08 µM)?
Its relative viability is 0.942.

What about the relative viability (NCI-H2087; first compound 0.253 µM) of the same compound?
The relative viability was 0.563.

And the relative viability (NCI-H2087; first compound 0.8 µM)?
The relative viability was 0.837.

What about the relative viability (NCI-H2087; first compound 2.53 µM) of the same compound?
Its relative viability is 0.608.

And the relative viability (NCI-H2087; first compound 8 µM)?
The relative viability was 0.711.

What about the relative viability (HCC-44; first compound 0.08 µM) of the same compound?
Its relative viability is 0.787.

What about the relative viability (HCC-44; first compound 0.253 µM) of the same compound?
Its relative viability is 0.815.

And the relative viability (HCC-44; first compound 0.8 µM)?
The relative viability was 0.795.

What about the relative viability (HCC-44; first compound 2.53 µM) of the same compound?
The relative viability was 0.659.

And the relative viability (HCC-44; first compound 8 µM)?
The relative viability was 0.719.

What about the relative viability (BEN; first compound 0.08 µM) of the same compound?
The relative viability was 0.897.

And the relative viability (BEN; first compound 0.253 µM)?
The relative viability was 0.952.

What about the relative viability (BEN; first compound 0.8 µM) of the same compound?
The relative viability was 0.921.

What about the relative viability (BEN; first compound 2.53 µM) of the same compound?
The relative viability was 0.755.

What about the relative viability (BEN; first compound 8 µM) of the same compound?
The relative viability was 0.825.

And the relative viability (COR-L 105; first compound 0.08 µM)?
Its relative viability is 0.707.

And the relative viability (COR-L 105; first compound 0.253 µM)?
The relative viability was 0.808.

And the relative viability (COR-L 105; first compound 0.8 µM)?
The relative viability was 0.949.

What about the relative viability (COR-L 105; first compound 2.53 µM) of the same compound?
Its relative viability is 0.921.

What about the relative viability (COR-L 105; first compound 8 µM) of the same compound?
Its relative viability is 0.566.

What about the relative viability (NCI-H1437; first compound 0.08 µM) of the same compound?
The relative viability was 0.859.

What about the relative viability (NCI-H1437; first compound 0.253 µM) of the same compound?
Its relative viability is 0.968.

And the relative viability (NCI-H1437; first compound 0.8 µM)?
Its relative viability is 0.936.

What about the relative viability (NCI-H1437; first compound 2.53 µM) of the same compound?
The relative viability was 0.983.

And the relative viability (NCI-H1437; first compound 8 µM)?
The relative viability was 0.936.

What about the relative viability (LOU-NH91; first compound 0.08 µM) of the same compound?
The relative viability was 0.743.

What about the relative viability (LOU-NH91; first compound 0.253 µM) of the same compound?
The relative viability was 0.696.

What about the relative viability (LOU-NH91; first compound 0.8 µM) of the same compound?
Its relative viability is 0.726.

What about the relative viability (LOU-NH91; first compound 2.53 µM) of the same compound?
The relative viability was 0.682.

What about the relative viability (LOU-NH91; first compound 8 µM) of the same compound?
Its relative viability is 0.742.
